In patent US20140296212A1, “SUBSTITUTED PHENOXYPROPYLCYCLOAMINE DERIVATIVES AS HISTAMINE-3 (H3) RECEPTOR LIGANDS” (CEPHALON, INC., priority 2009, published 2014):
Counter-ions that a name gives are not always drawn.

Legend:
[1] = biological target: T1, human H3 receptor (Homo sapiens, UniProt Q9Y5N1); assay: Human H3 radioligand binding ([3H]-N-alpha-methylhistamine, SPA); conditions: membranes of CHO cells expressing human H3
T1 construct: expressed in transfected cells
Method: Cell pellets were resuspended in 5 mM Tris-HCl, pH 7.5 with 5 nM EDTA and a cocktail of protease inhibitors (Complete Protease Inhibitor Tablets, Roche Diagnostics). Cells were disrupted using a polytron cell homogenizer and the suspension was centrifuged at 1000×g for 10 minutes at 4° C. The pellet was discarded and the supernatant centrifuged at 40,000×g for 30 min at 4° C. This membrane pellet was washed in membrane buffer containing 50 mM Tris-HCl, pH 7.5 with 0.6 mM EDTA, 5 mM MgCl2 and protease inhibitors, recentrifuged as above and the final pellet resuspended in membrane buffer plus 250 mM sucrose and frozen at −80° C.
(§1) Membranes were resuspended in 50 mM Tris HCl (pH 7.4), 5 mM MgCl2, 0.1% BSA. The membrane suspensions (10 μg protein per well) were incubated in a 96 well microtiter plate with [^3H]-N-alpha-methylhistamine (approximately 1 nM final concentration), test compounds at various concentrations (0.01 nM-30 μM) and scintillation proximity beads (Perkin Elmer, FlashBlueGPCR Scintillating Beads) in a final volume of 80 μl for 4 hours at room temperature, protected from light. Non-specific binding was determined in the presence of 10 μM clobenpropit. Radioligand bound to receptor, and therefore in proximity to the scintillation beads, was measured using a MicroBeta scintillation counter.

[2] = biological target: T2, rat histamine H3 receptor (Rattus norvegicus, UniProt Q9QYN8); assay: Rat H3 radioligand binding ([3H]-N-alpha-methylhistamine, SPA); conditions: membranes of CHO-A3 cells expressing rat H3; [3H]-N-alpha-methylhistamine; read-out: Rat H3 Ki
T2 construct: encoding the entire 445-amino-acid rat histamine H3 receptor; expressed in transfected cells
Description: The rat H3 receptor cDNA was PCR amplified from reverse-transcribed RNA pooled from rat thalamus, hypothalamus, striatum and prefrontal cortex with a sequence corresponding to by #338-1672 of Genbank file #NM_053506, encoding the entire 445-amino-acid rat histamine H3 receptor. This was engineered into the pIRES-neo3 mammalian expression vector, which was stably transfected into the CHO-A3 cell line (Euroscreen, Belgium), followed by clonal selection by limiting dilution. Cells were harvested and cell pellets were frozen (−80° C.). Cell pellets were resuspended in 5 mM Tris-HCl, pH 7.5 with 5 nM EDTA and a cocktail of protease inhibitors (Complete Protease Inhibitor Tablets, Roche Diagnostics). Cells were disrupted using a polytron cell homogenizer and the suspension was centrifuged at 1000×g for 10 minutes at 4° C. The pellet was discarded and the supernatant centrifuged at 40,000×g for 30 min at 4° C. This membrane pellet was washed in membrane buffer containing 50 mM Tris-HCl, pH 7.5 with 0.6 mM EDTA, 5 mM MgCl2 and protease inhibitors, recentrifuged as above and the final pellet resuspended in membrane buffer plus 250 mM sucrose and frozen at −80° C.
as §1

T2 sequence (Q9QYN8 whole entry): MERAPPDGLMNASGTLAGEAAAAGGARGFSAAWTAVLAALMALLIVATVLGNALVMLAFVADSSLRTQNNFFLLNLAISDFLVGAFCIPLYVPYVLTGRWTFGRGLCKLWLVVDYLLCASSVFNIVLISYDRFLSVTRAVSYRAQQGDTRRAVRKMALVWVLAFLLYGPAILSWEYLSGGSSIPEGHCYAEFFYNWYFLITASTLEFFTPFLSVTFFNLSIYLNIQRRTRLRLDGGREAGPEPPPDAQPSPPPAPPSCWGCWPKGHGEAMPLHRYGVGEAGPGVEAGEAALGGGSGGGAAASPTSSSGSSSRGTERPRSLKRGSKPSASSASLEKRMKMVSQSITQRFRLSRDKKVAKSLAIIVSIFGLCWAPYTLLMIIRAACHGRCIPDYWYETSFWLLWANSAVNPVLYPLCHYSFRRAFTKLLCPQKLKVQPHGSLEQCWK
T1 sequence (Q9Y5N1 whole entry): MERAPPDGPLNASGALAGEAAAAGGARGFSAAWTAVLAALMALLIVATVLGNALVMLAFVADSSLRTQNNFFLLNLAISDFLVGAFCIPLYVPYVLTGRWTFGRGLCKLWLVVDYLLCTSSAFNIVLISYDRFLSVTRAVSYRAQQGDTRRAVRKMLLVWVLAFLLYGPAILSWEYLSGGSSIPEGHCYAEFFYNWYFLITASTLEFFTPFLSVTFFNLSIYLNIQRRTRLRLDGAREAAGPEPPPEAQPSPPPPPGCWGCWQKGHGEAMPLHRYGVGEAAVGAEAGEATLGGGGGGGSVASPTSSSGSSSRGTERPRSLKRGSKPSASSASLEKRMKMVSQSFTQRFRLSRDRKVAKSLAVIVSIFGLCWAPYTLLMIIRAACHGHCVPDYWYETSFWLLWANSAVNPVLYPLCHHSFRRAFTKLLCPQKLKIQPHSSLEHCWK

| Structure (SMILES) | melting point | Ki [1] | Ki [2] |
| --- | --- | --- | --- |
| C[C@@H]1CCCN1CCCOc1ccc(C(=O)C(C)(C)N2CCOCC2)cc1 (as salt: fumaric acid salt) [Example 54] | 45 to 50 °C |  |  |
| C[C@@H]1CCCN1CCCOc1ccc(C(=O)CN2CCN(C(=O)c3ccccc3)CC2)c(F)c1 (as salt: fumaric acid salt) [Example 103, 2-(4-Benzoyl-piperazin-1-yl)-1-{2-fluoro-4-[3-((R)-2-methyl-pyrrolidin-1-yl)-propoxy]-phenyl}-ethanone] | 98 to 101 °C |  |  |
| CC(C)N1CCC(Oc2ccc(C(=O)CN3CCOCC3)cc2)CC1 (as salt: hydrochloride) [Example 45, 1-[4-(1-Isopropyl-piperidin-4-yloxy)-phenyl]-2-morpholin-4-yl-ethanone] | 296 to 298 °C |  |  |
| CC(C(=O)c1ccc(OCCCN2CCCCC2)cc1)N1CCCCC1 (stereo not shown) [Example 19, 2-Piperidin-1-yl-1-[4-(3-piperidin-1-yl-propoxy)-phenyl]-propan-1-one] | > 240 °C | 0.1 to 100 nM |  |
| CC(C(=O)c1ccc(OCCCN2CCC[C@@H]2C)cc1)N1CCCCC1 (stereo partly drawn) [Example 20, 1-{4-[3-((S)-2-Methyl-pyrrolidin-1-yl)-propoxy]-phenyl}-2-piperidin-1-yl-propan-1-one] | > 230 °C | 0.1 to 100 nM |  |
| O=C(CN1CCOCC1)c1ccc(OCCCN2Cc3ccccc3C2)cc1 [Example 46, 1-{4-[3-(1,3-Dihydro-isoindol-2-yl)-propoxy)-phenyl}-2-morpholin-4-yl-ethanone] | 139 to 139.5 °C | > 1000 nM |  |
| CC(C(=O)c1ccc(OCCCN2CCOCC2)cc1)N1CCOCC1 (stereo not shown) [Example 48, 2-Morpholin-4-yl-1-[4-(3-morpholin-4-yl-propoxy)-phenyl]-propan-1-one] | 258 °C | > 1000 nM |  |
| CC(=O)N1CCN(CCCOc2ccc(C(=O)CN3CCOCC3)cc2)CC1 [Example 49, 1-{4-[3-(4-Acetyl-piperazin-1-yl)-propoxy]-phenyl}-2-morpholin-4-yl-ethanone] | 247 °C | > 1000 nM |  |
| CC(=O)N1CCN(CCCOc2ccc(C(=O)C(C)N3CCOCC3)cc2)CC1 (stereo not shown) [Example 50, 1-{4-[3-(4-Acetyl-piperazin-1-yl)-propoxy]-phenyl}-2-morpholin-4-yl-propan-1-one] | 240 °C | > 1000 nM |  |
| C[C@@H]1CCCN1CCCOc1ccc(C(=O)CN2CCCC(F)(F)C2)cc1 [Example 52, 2-(3,3-Difluoro-piperidin-1-yl)-1-{4-[3-((R)-2-methyl-pyrrolidin-1-yl)-propoxy]-phenyl}-ethanone] |  | 0.1 to 100 nM | 0.1 to 100 nM |
| C[C@@H]1CCCN1CCCOc1ccc(C(=O)C(C)(C)N2CCOCC2)cc1 [Example 54] |  | 0.1 to 100 nM | 0.1 to 100 nM |
| C[C@@H]1CCCN1CCCOc1ccc(C(=O)CN2CCC(F)(F)C2)cc1 [Example 60, 2-(3,3-Difluoro-pyrrolidin-1-yl)-1-{4-[3-((R)-2-methyl-pyrrolidin-1-yl)-propoxy]-phenyl}-ethanone] |  | 0.1 to 100 nM | 0.1 to 100 nM |
| C[C@@H]1CCCN1CCCOc1ccc(C(=O)CN2CCN(C(=O)C(F)(F)F)CC2)cc1 [Example 64] |  | 0.1 to 100 nM | 0.1 to 100 nM |
| O=C(CN1CCOCC1)c1ccc(OCCCN2CCCC2=O)cc1 [Example 67, 1-{3-[4-(2-Morpholin-4-yl-acetyl)-phenoxy]-propyl}-pyrrolidin-2-one] |  | > 1000 nM | > 1000 nM |
| C[C@@H]1CCCN1CCCOc1ccc(C(=O)CN2CCN(C(=O)c3ccccc3)CC2)cc1 [Example 68, 2-(4-Benzoyl-piperazin-1-yl)-1-{4-[3-((R)-2-methyl-pyrrolidin-1-yl)-propoxy]-phenyl}-ethanone] |  | 0.1 to 100 nM | 0.1 to 100 nM |
| C[C@@H]1CCCN1CCCOc1ccc(C(=O)CN2Cc3ccccc3C2)cc1 [Example 73, 2-(1,3-Dihydro-isoindol-2-yl)-1-{4-[3-((R)-2-methyl-pyrrolidin-1-yl)-propoxy]-phenyl}-ethanone] |  | 0.1 to 100 nM | 0.1 to 100 nM |

| Structure (SMILES) | melting point | Ki [1] | Ki [2] |
| --- | --- | --- | --- |
| Cc1cc(OCCCN2CCC[C@H]2C)ccc1C(=O)CN1CCOCC1 [Example 74, 1-{2-Methyl-4-[3-((R)-2-methyl-pyrrolidin-1-yl)-propoxy]-phenyl}-2-morpholin-4-yl-ethanone] |  | 0.1 to 100 nM | 101 to 500 nM |
| C[C@@H]1CCCN1CCCOc1ccc(C(=O)CN2Cc3ccc(F)cc3C2)cc1 [Example 86, 2-(5-Fluoro-1,3-dihydro-isoindol-2-yl)-1-{4-[3-((R)-2-methyl-pyrrolidin-1-yl)-propoxy]-phenyl}-ethanone] |  | 0.1 to 100 nM | 0.1 to 100 nM |
| C[C@@H]1CCCN1CCCOc1ccc(C(=O)CN2CCN(C(=O)c3ccccc3)CC2)c(F)c1 [Example 103, 2-(4-Benzoyl-piperazin-1-yl)-1-{2-fluoro-4-[3-((R)-2-methyl-pyrrolidin-1-yl)-propoxy]-phenyl}-ethanone] |  | 0.1 to 100 nM | 0.1 to 100 nM |
| Cc1cc(C(=O)CN2CCN(C(=O)c3ccccc3)CC2)ccc1OCCCN1CCC[C@H]1C [Example 107, 2-(4-Benzoyl-piperazin-1-yl)-1-{3-methyl-4-[3-((R)-2-methyl-pyrrolidin-1-yl)-propoxy]-phenyl}-ethanone] |  | 0.1 to 100 nM | 0.1 to 100 nM |
| COc1cc(C(=O)CN2CCN(C(=O)c3ccccc3)CC2)ccc1OCCCN1CCC[C@H]1C [Example 112, 2-(4-Benzoyl-piperazin-1-yl)-1-{3-methoxy-4-[3-((R)-2-methyl-pyrrolidin-1-yl)-propoxy]-phenyl}-ethanone] |  | 101 to 500 nM | > 1000 nM |
| CC(C)COC(=O)N1CCN(CC(=O)c2ccc(OCCCN3CCC[C@H]3C)cc2)CC1 [Example 131, 4-(2-{4-[3-((R)-2-Methyl-pyrrolidin-1-yl)-propoxy]-phenyl}-2-oxo-ethyl)-piperazine-1-carboxylic acid isobutyl ester] |  | 0.1 to 100 nM | 0.1 to 100 nM |
| C[C@@H]1CCCN1CCCOc1ccc(C(=O)CN2CCN(C(=O)c3cccc4ccccc34)CC2)cc1 [Example 133, 1-{4-[3-((R)-2-Methyl-pyrrolidin-1-yl)-propoxy]-phenyl}-2-[4-(naphthalene-1-carbonyl)-piperazin-1-yl]-ethanone] |  | 0.1 to 100 nM | 0.1 to 100 nM |
| Cc1cc(C(=O)CN2CCC(F)(F)CC2)ccc1OCCCN1CCC[C@H]1C [Example 136, 2-(4,4-Difluoro-piperidin-1-yl)-1-{3-methyl-4-[3-((R)-2-methyl-pyrrolidin-1-yl)-propoxy]-phenyl}-ethanone] |  | 0.1 to 100 nM | 101 to 500 nM |
| COC(=O)N1CCN(CC(=O)c2ccc(OCCCN3CCC[C@H]3C)c(C)c2)CC1 [Example 137, 4-(2-{3-Methyl-4-[3-((R)-2-methyl-pyrrolidin-1-yl)-propoxy]-phenyl}-2-oxo-ethyl)-piperazine-1-carboxylic acid methyl ester] |  | 0.1 to 100 nM | 0.1 to 100 nM |
| Cc1cc(C)cc(C(=O)N2CCN(CC(=O)c3ccc(OCCCN4CCC[C@H]4C)cc3)CC2)c1 [Example 140, 2-[4-(3,5-Dimethyl-benzoyl)-piperazin-1-yl]-1-{4-[3-((R)-2-methyl-pyrrolidin-1-yl)-propoxy]-phenyl}-ethanone] |  | 0.1 to 100 nM | 0.1 to 100 nM |
| Cc1nc2ccccc2n1CC(=O)c1ccc(OCCCN2CCC[C@H]2C)cc1 [Example 142, 2-(2-Methyl-benzoimidazol-1-yl)-1-{4-[3-((R)-2-methyl-pyrrolidin-1-yl)-propoxy]-phenyl}-ethanone] |  | 0.1 to 100 nM | 0.1 to 100 nM |
| CC(C)OC(=O)N1CCN(CC(=O)c2ccc(OCCCN3CCC[C@H]3C)cc2)CC1 [Example 158, 4-(2-{4-[3-((R)-2-Methyl-pyrrolidin-1-yl)-propoxy]-phenyl}-2-oxo-ethyl)-piperazine-1-carboxylic acid isopropyl ester] | 222 to 224 °C |  |  |
| C[C@@H]1CCCN1CCCOc1ccc(/C(CN2CCCCC2)=N/OC(C)(C)C)cc1 [Example 160] |  | 0.1 to 100 nM | 0.1 to 100 nM |
| C[C@@H]1CCCN1CCCOc1ccc(/C(CN2CCCCC2=O)=N/OC(C)(C)C)cc1 [Example 167] |  | 0.1 to 100 nM | 0.1 to 100 nM |
| C[C@@H]1CCCN1CCCOc1ccc(/C(CN2CCOC(c3ccccc3)C2)=N/OC(C)(C)C)cc1 (stereo partly shown) [Example 168] |  | 0.1 to 100 nM | 101 to 500 nM |
